Source: patent US8530407B2, “Multi-component antioxidant compounds, pharmaceutical compositions containing same and their use for reducing or preventing oxidative stress” (Yissum Research Development Company of the Hebrew …, priority 2000, dated 2013)

What was measured:
[1] = test system: reactive oxygen species (ROS) in DHER14 cells; assay: Inhibition of ROS production, fluorescent dye DHDCF; format: cell-based
Method: FIG. 3 represents cellular ROS levels as determined using a fluorescence assay in the presence of CB, NOXi and NAC antioxidants.
The concentration of reactive oxygen species (ROS) in DHER14 cells following administration of antioxidants was determined using the ROS sensitive fluorescent dye DHDCF (fluoresceine derivative). […] The efficacy of CB in reducing ROS was about ˜50 fold better then these two known antioxidants.

[2] = test system: JNK (c-Jun NH2-terminal kinase); conditions: DHER14 cells exposed to cisplatin (CDDP, 30 μM)
Method: (§1) In order to show the efficacy of CB against a stimulant that activates oxidative stress, an inhibition assay of both JNK (c-Jun NH2-terminal kinase) and p38 enzymes in tissue culture was performed.
(§2) NIH3T3 cells overexpressing EGF receptor (DHER14 cells) (55) were exposed to cisplatin (CDDP, 30 μM) which activates specific enzymes involved in apoptosis including JNK and p38.
(§3) Two known antioxidants were used as positive controls, NOXi (at 300 and 1000 μM) and NAC (NAC) (at 1000 μM).

[3] = test system: p38; conditions: DHER14 cells exposed to cisplatin (CDDP, 30 μM)
Method: as §1, §2, §3

[4] = 20 μM, detected by specific antibodies

efficacy against JNK phosphorylation compared with CB at 20 μM ([2]; 1 mM) | Compound | efficiency in reducing ROS compared with CB at 20 μM ([1]; 1000 μM) | efficacy against p38 phosphorylation compared with CB at 20 μM ([3]; 1 mM) | ROS level ([1]; 20 μM) | efficacy in reducing ROS relative to NOXi and NAC ([1]; CB 20 μM versus 1000 μM NAC or 1000 μM NOXi) [fold] | phosphorylated JNK [2, 4] | phosphorylated form of JNK ([2]; increasing concentrations) | phosphorylated p38 [3, 4] | phosphorylated form of p38 ([3]; increasing concentrations)
similar | CC(=O)N[C@@H](CS)C(=O)O [NAC, N-acetyl cysteine, reference compound] | as efficient as | similar | – | – | – | – | – | –
– | N-Acetyl Cysteine-Glycine-Proline-Cysteine-Amid [CB] | – | – | reduction of ROS below normal levels was prominent | ~50 | not detected at all | dramatic reduction | not detected at all | dramatic reduction
